# Data as given in patent US9783488B2 (CHDI Foundation, Inc., priority 2013, dated 2017).
# Columns and labels:
# [1] = molecular target: human catalytic domain HDAC4 protein (amino acids 648-1032) (Homo sapiens (Human), UniProt P56524); assay: Inhibition of HDAC4 catalytic domain enzymatic activity, fluorogenic substrate Boc-Lys(Tfa)-AMC; details: HDAC4 catalytic domain enzyme, read-out: Biochemical HDAC4 IC50
# Description: Analysis of Inhibition of HDAC4 with Class IIa Histone Deacetylase (HDAC) Inhibitors
# The potency of Class IIa Histone Deacetylase (HDAC) inhibitors is quantified by measuring the Histone Deacetylase 4 (HDAC4) catalytic domain enzymatic activity using the fluorogenic substrate, Boc-Lys(Tfa)-AMC. The substrate is deacetylated to Boc-Lys-AMC by HDAC4. Cleavage by trypsin results in the release of the fluorophore AMC from the deacetylated substrate. The fluorescence of the sample is directly related to the histone deacetylase activity in the sample.
# Serially dilute HDAC inhibitor compounds. […] Stocks of 6 μl aliquots of the 10 mM compound in DMSO are prepared and stored at […]. From one stock aliquot of each compound to be tested and the reference compound, a 16-point serial dilution is prepared according to Table 1 using a 125 μl 16-channel Matrix multi-channel pipette (Matrix Technologies Ltd).
# 2 μl (200×) of each diluted solution and each control (full activity: 100% DMSO alone or full inhibition 1 mM) is stamped into V-bottomed polypropylene 384-well compound plates using either the Bravo (384-well head from Agilent) or 12.5 μl 16-channel Matrix multi-channel pipette (Matrix Technologies Ltd).
# Prepare HDAC4 catalytic domain enzyme (0.2 μg/mL).
# Prepare 5× ([…]) Boc-Lys(Tfa)-AMC Substrate. 5× (50 μM) substrate is prepared just prior to the addition to the assay. A 1 mM substrate stock is made by diluting a 100 mM Boc-Lys(Tfa)-AMC in DMSO solution 1:100 by adding it drop-wise to assay buffer (equilibrated to r.t.) while vortexing at slow speed to prevent precipitation. The 5× substrate is prepared by diluting the 1 mM substrate solution 1:20 by adding it drop-wise to assay buffer (equilibrated to r.t.) while vortexing at slow speed to prevent precipitation.
# Prepare 3× (30 μM) Developer/Stop Solution.
# Assay. 5 μl of each solution of 1:20 diluted compound from above is transferred to a clear bottomed, black, 384-well assay plate using the Bravo or the Janus (384-well MDT head from Perkin Elmer). Using a 16-channel Matrix multi-channel pipette, 35 μl of the working solution of HDAC4 catalytic domain enzyme (0.2 μg/mL in assay buffer) is transferred to the assay plate. […] The assay plate is then shaken for two minutes on an orbital shaker at 900 rpm (rotations per minute). Next the plate is incubated for 15 minutes at 37° C. The reaction is stopped by adding 25 μl of 3× (3 μM) developer/stop solution to the assay plates using either the Bravo, Janus or a 16-channel Matrix multi-channel pipette. Assay plates are then shaken for 5 minutes on an orbital shaker at 1200 rpm. Next, the assay plates are incubated at 37° C. for 1 hour in a tissue culture incubator.
# [2] = test system: cellular histone deacetylase enzymatic activity in Jurkat E6-1 cells; assay: Inhibition of cellular HDAC activity in Jurkat E6-1 cells, fluorogenic substrate Boc-Lys(Tfa)-AMC; type: cell-based; details: Homo sapiens, read-out: Cell IC50
# Description: Analysis of Inhibition of Cellular HDAC Activity with Class IIa Histone Deacetylase (HDAC) Inhibitors
# The potency of Class IIa Histone Deacetylase (HDAC) inhibitors is quantified by measuring the cellular histone deacetylase enzymatic activity using the fluorogenic substrate, Boc-Lys(Tfa)-AMC. After penetration in Jurkat E6-1 cells, the substrate is deacetylated to Boc-Lys-AMC. After cell lysis and cleavage by trypsin, the fluorophore AMC is released from the deacetylated substrate only. The fluorescence of the sample is directly related to the histone deacetylase activity in the sample.
# Jurkat E6.1 cell culture and plating. Jurkat E6.1 cells are cultured according to standard cell culture protocols in Jurkat E6.1 Growth Media (RPMI without phenol red, 10% FBS, 1 mM HEPES, and 1 mM Sodium Pyruvate). Jurkat E6.1 cells are counted using a Coulter Counter and resuspended in Jurkat E6.1 growth media at a concentration of 75,000 cells/35 μl. 35 μl or 75,000 cells is seeded into Greiner microtitre assay plates. The plates are then incubated at 37° C. and 5% CO2 while other assay components are being prepared.
# Serially dilute HDAC inhibitor compounds. Serial dilutions of the HDAC inhibitors and control reference compound (1-(5-(3-((4-(1,3,4-oxadiazol-2-yl)phenoxy)methyl)-1,2,4-oxadiazol-5-yl)thiophen-2-yl)-2,2,2-trifluoroethanone) are made by first resuspending the lyophilized compound to a final concentration of 10 mM in […]. Stocks of 70 μl aliquots of the 10 mM compound in DMSO are prepared and stored at −20° C. From one stock aliquot of each compound to be tested and the reference compound, a 16-point serial dilution is prepared according to Table 1 using a 125 μl 16-channel Matrix multi-channel pipette.
# 2 μl (200×) of each diluted solution and each control (full activity: 100% DMSO alone or full inhibition 1 mM) is stamped into V-bottom polypropylene 384-well compound plates using either the Bravo, Janus, or 12.5 μl 16-channel Matrix multi-channel pipette. Each well with the 200× compound solution is diluted 1:20 by the addition of 38 μl Jurkat assay buffer+DMSO (9.5% DMSO, RPMI without phenol red, 0.09% FBS, 9 mM Hepes, and 0.9 mM Sodium Pyruvate equilibrated to r.t.)
# Prepare 5× (500 μM) Boc-Lys(Tfa)-AMC substrate. 5× (500 μM) substrate is prepared just prior to the addition to the assay. The 5× substrate is prepared by diluting a 100 mM Boc-Lys(Tfa)-AMC in DMSO solution 1:200 by adding it drop-wise to Jurkat assay medium (RPMI without phenol red, 0.1% FBS, 10 mM Hepes, and 1 mM Sodium Pyruvate equilibrated to 37° C.) while vortexing at slow speed to prevent precipitation.
# Prepare 3× Lysis Buffer. 10 mL of 3× lysis buffer is prepared with 8.8 mL of 3× stock lysis buffer (50 mM Tris-HCl, pH 8.0, 137 mM NaCl, 2.7 mM KCl, 1 mM MgCl2, 1% Nonidet P40 Substitute equilibrated to r.t.) and 1.2 mL of 3 mg/mL Trypsin equilibrated to r.t.
# Assay. 5 μl of each solution of 1:20 diluted compound from above is transferred to the Greiner microtitre assay plates with 75,000 cells/well using the Bravo. Cells are then incubated for 2 hours at 37° C. and 5% CO2. The assay is then started by adding 10 μl of 5× (500 μM) substrate to the assay plate using either the Bravo or 16-channel Matrix multi-channel pipette. The cells are then incubated for 3 hours at 37° C. and 5% CO2. Next, 25 μl of 3× lysis buffer is added to each well using either the 125 μl 16 channel pipette or the Bravo. The assay plate is then incubated overnight (15-16 hours) at 37° C. and 5% CO2. The following day, the plates are shaken on an orbital shaker for 1 minute at 900 rpm. Finally the top read fluorescence (Excitation: 355 nm, Emission: 460 nm) is measured using PerkinElmer EnVision.
# Sequence of human catalytic domain HDAC4 protein (amino acids 648-1032) (P56524 648-1032): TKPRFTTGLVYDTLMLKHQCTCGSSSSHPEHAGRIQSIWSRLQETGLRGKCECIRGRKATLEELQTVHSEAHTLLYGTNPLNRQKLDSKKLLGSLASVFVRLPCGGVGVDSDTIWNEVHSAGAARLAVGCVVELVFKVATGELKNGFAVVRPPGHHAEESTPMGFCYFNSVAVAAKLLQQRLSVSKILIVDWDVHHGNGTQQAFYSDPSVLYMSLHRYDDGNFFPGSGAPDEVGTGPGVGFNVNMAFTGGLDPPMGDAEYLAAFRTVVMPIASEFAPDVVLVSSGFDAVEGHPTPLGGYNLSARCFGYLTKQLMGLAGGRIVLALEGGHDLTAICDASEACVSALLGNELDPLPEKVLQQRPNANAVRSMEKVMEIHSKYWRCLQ
Compound,IC50 [1] [nM],IC50 [2] [nM]
"Cc1c(F)cccc1[C@]1(C(=O)NO)CC[C@@H](c2cncnc2)C1 (relative stereo) [Example 2, (±)-(1S*,3R*)-1-(3-fluoro-2-methylphenyl)-N-hydroxy-3-(pyrimidin-5-yl)cyclopentanecarboxamide]",290,1910
"Cc1c(F)cccc1[C@]1(C(=O)NO)CC[C@H](c2cncnc2)C1 (relative stereo) [Example 3, (±)-(1S*,3S*)-1-(3-fluoro-2-methylphenyl)-N-hydroxy-3-(pyrimidin-5-yl)cyclopentanecarboxamide]",390,1600
"Cc1ccccc1[C@H]1CC[C@@](C(=O)NO)(c2cccc(F)c2C)C1 (relative stereo) [Example 8, (±)-(1S*,3S*)1-(3-fluoro-2-methylphenyl)-N-hydroxy-3-(o-tolyl)cyclopentane carboxamide]",,480
"Cc1c(F)cccc1[C@]1(C(=O)NO)CC[C@@H](c2cnn(CCN3CCOCC3)c2)C1 (relative stereo) [Example 47, (1S,3R*)-1-(3-fluoro-2-methylphenyl)-N-hydroxy-3-(1-(2-morpholinoethyl)-1H-pyrazol-4-yl)cyclopentanecarboxamide]",,830
"Cc1c(F)cccc1[C@@]1(C(=O)NO)CC[C@H](c2ccccc2)C1 (stereo in doubt) [Example 4, (1R*,3S*)-1-(3-fluoro-2-methylphenyl)-N-hydroxy-3-phenylcyclopentanecarboxamide]",,440
"Cc1c(F)cccc1[C@]1(C(=O)NO)CC[C@@H](c2ccccc2)C1 (stereo in doubt) [Example 5, (1S*,3R*)-1-(3-fluoro-2-methylphenyl)-N-hydroxy-3-phenylcyclopentanecarboxamide]",,7850
"Cc1c(F)cccc1[C@]1(C(=O)NO)CC[C@H](c2ccccc2)C1 (stereo in doubt) [Example 6, (1S*,3S*)-1-(3-fluoro-2-methylphenyl)-N-hydroxy-3-phenylcyclopentanecarboxamide]",,610
"Cc1c(F)cccc1[C@@]1(C(=O)NO)CC[C@@H](c2ccccc2)C1 (stereo in doubt) [Example 7, (1R*,3R*)-1-(3-fluoro-2-methylphenyl)-N-hydroxy-3-phenylcyclopentanecarboxamide]",,1120

# More lines, now with the values ahead:
IC50 [1] [nM],IC50 [2] [nM],Compound
1400,12000,"Cc1c(F)cccc1C1(C(=O)NO)CCC2(CCOCC2)C1 (racemic) [Example 105, (±)-2-(3-fluoro-2-methylphenyl)-N-hydroxy-8-oxaspiro[4.5]decane-2-carboxamide]"
,290,"CCN(CC)CCn1cc([C@@H]2CC[C@@](C(=O)NO)(c3cccc(F)c3C)C2)cn1 (relative stereo) [Example 51, (1S,3R*)-3-(1-(2-(diethylamino)ethyl)-1H-pyrazol-4-yl)-1-(3-fluoro-2-methylphenyl)-N-hydroxycyclopentanecarboxamide]"
,180,"CCCN(CCC)C[C@@H](C)NC(=O)c1ccc([C@@H]2CC[C@@](C(=O)NO)(c3cccc(F)c3C)C2)cc1 (relative stereo) [Example 52, N—((R)-1-(dipropylamino)propan-2-yl)-4-((1R*,3S)-3-(3-fluoro-2-methylphenyl)-3-(hydroxycarbamoyl)cyclopentyl)benzamide]"
,150,"CCCN(CCC)C[C@@H](C)NC(=O)c1ccc([C@H]2CC[C@@](C(=O)NO)(c3cccc(F)c3C)C2)cc1 (relative stereo) [Example 53, N—((R)-1-(dipropylamino)propan-2-yl)-4-((1S*,3S)-3-(3-fluoro-2-methylphenyl)-3-(hydroxycarbamoyl)cyclopentyl)benzamide]"
,190,"Cc1c(F)cccc1[C@]1(C(=O)NO)CC[C@@H](c2ccc3c(c2)CN(C2CC2)C3=O)C1 (relative stereo) [Example 59, (1S,3R*)-3-(2-cyclopropyl-1-oxoisoindolin-5-yl)-1-(3-fluoro-2-methylphenyl)-N-hydroxycyclopentanecarboxamide]"
,380,"Cc1c(F)cccc1[C@]1(C(=O)NO)CC[C@H](c2ccc3sc(C4CC4)nc3c2)C1 (relative stereo) [Example 79, (1S,3S*)-3-(2-Cyclopropylbenzo[d]thiazol-5-yl)-1-(3-fluoro-2-methylphenyl)-N-hydroxycyclopentanecarboxamide]"
,380,"Cc1c(F)cccc1[C@]1(C(=O)NO)CC[C@@H](c2ccc3sc(C4CC4)nc3c2)C1 (relative stereo) [Example 80, (1 S,3R*)-3-(2-Cyclopropylbenzo[c]thiazol-5-yl)-1-(3-fluoro-2-methylphenyl)-N-hydroxycyclopentanecarboxamide]"
,160,"Cc1c([C@]2(C(=O)NO)CC[C@@H](c3ccc4cnn(C)c4c3)C2)ccc(F)c1F (relative stereo) [Example 86, (1S,3R*)-1-(3,4-difluoro-2-methylphenyl)-N-hydroxy-3-(1-methyl-1H-indazol-6-yl)cyclopentanecarboxamide]"
,> 50000,"Cc1c(F)cccc1[C@]1(C(=O)NO)CC[C@@H](N2CCCC2)C1 (relative stereo) [Example 87, (1 S,3R*)-1-(3-fluoro-2-methylphenyl)-N-hydroxy-3-(pyrrolidin-1-yl)cyclopentanecarboxamide]"
,> 50000,"Cc1c(F)cccc1[C@]1(C(=O)NO)CC[C@H](N2CCCC2)C1 (relative stereo) [Example 88, (1 S,3S*)-1-(3-fluoro-2-methylphenyl)-N-hydroxy-3-(pyrrolidin-1-yl)cyclopentanecarboxamide]"
